Test results published in US10125134B2 (Mirati Therapeutics, Inc., priority 2016, dated 2018).
pIC50: −log10 of the molar value. Where a name gives a salt, the structure may show the parent alone. Read-outs that look alike come from different tables or passages of the source.

Experiments:
KRas G12C = KRas G12C (Homo sapiens, UniProt P01116, C118S/C51S/C80L/G12C); assay: KRas G12C Modification Assay (LCMS detection of covalent adduct); format: binding
Procedure, shortened: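 Cys-light KRas G12C mutant protein incubated with compound in K-Ras assay buffer, reactions quenched at set time points with 25 mM acetic acid and analysed by intact-protein LC/MS on a C-3 column. Deconvoluted mass heights expressed as percent of control (POC) relative to compound-free protein.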

[1] = tested on: NCI-H358 cells (express KRas G12C), Phospho-ERK; assay: Cellular inhibition of KRas G12C: Phospho-ERK in NCI-H358 cells; format: cell-based; conditions: Homo sapiens
Procedure, shortened: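 IC50 derived by 4-parameter fit of GAPDH-normalized pERK(Thr202/Tyr204) signal, as percent of DMSO control. Signal came from in-cell immunodetection with infrared secondaries after 3 h compound exposure of KRas G12C NCI-H358 cells at 0.5% DMSO.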

[2] = normalized percent of control, tested at 5 μM concentration for 3 hours
[3] = pERK(Thr202/Tyr204) normalized with GAPDH, NCI-H358 cells, 3 hours, read-out: IC50
[4] = NCI-H358, 3 h, pERK(Thr202/Tyr204) normalized with GAPDH, NCI-H358 cells, 3 hours, read-out: IC50

Structure (SMILES)	POC (KRas G12C; 5 µM)	pIC50 ([1]; NCI-H358, 3 h)	POC (KRas G12C; [2])	pIC50 [1, 3]	pIC50 [1, 4]
C=CC(=O)N1CCN(c2nc(OC[C@@H]3CCCN3C)nc3c2CCN(c2c(C(C)C)ccc4[nH]ncc24)C3)CC1 [Example 248, (S)-1-(4-(7-(5-isopropyl-1H-indazol-4-yl)-2-((1-methylpyrrolidin-2-yl)methoxy)-5,6,7,8-tetrahydropyrido[3,4-d]pyrimidin-4-yl)piperazin-1-yl)prop-2-en-1-one]	C (key: “A”≤25% POC; “B”>25% POC−≤50% POC; “C”>50% POC)	< 6.00			
C=CC(=O)N1CCN(c2nc(OCCCN3CCOCC3)nc3c2CCN(c2cc(O)cc(C4CC4)c2)C3)CC1 [Example 41, 1-(4-(7-(3-cyclopropyl-5-hydroxyphenyl)-2-(3-morpholinopropoxy)-5,6,7,8-tetrahydropyrido[3,4-d]pyrimidin-4-yl)piperazin-1-yl)prop-2-en-1-one trifluoroacetate]			A (“A”≤25% POC)	< 6.00	
C=CC(=O)N1CCN(c2nc(OC[C@@H]3CCCN3CC)nc3c2CCN(c2cc(O)cc4ccccc24)C3)CC1 [Example 197, (S)-1-(4-(2-((1-ethylpyrrolidin-2-yl)methoxy)-7-(3-hydroxynaphthalen-1-yl)-5,6,7,8-tetrahydropyrido[3,4-d]pyrimidin-4-yl)piperazin-1-yl)prop-2-en-1-one]			C (“C”>50% POC)		6.00 to 10.00
C=CC(=O)N1CCN(c2nc(OC[C@@H]3CCCN3C)nc3c2CCN(c2cccc(OC)c2C)C3)C[C@@H]1CC#N [Example 324, 2-[(2S)-4-[7-(3-methoxy-2-methyl-phenyl)-2-[[(2S)-1-methylpyrrolidin-2-yl]methoxy]-6,8-dihydro-5H-pyrido[3,4-d]pyrimidin-4-yl]-1-prop-2-enoyl-piperazin-2-yl]acetonitrile]			C (“C”>50% POC)		6.00 to 10.00
C=CC(=O)N1CCN(c2ncnc3c2CCN(c2cc(O)cc4ccccc24)C3)CC1 [Example 1, 1-(4-(7-(3-hydroxynaphthalen-1-yl)-5,6,7,8-tetrahydropyrido[3,4-d]pyrimidin-4-yl)piperazin-1-yl)prop-2-en-1-one]			B (“B”>25% POC−≤50% POC)		< 6.00
C=CC(=O)N1CCN(c2nc(OCC3CCN(CCO)C3)nc3c2CCN(c2cc(O)cc4ccccc24)C3)CC1 (centres unmarked) [Example 141, 1-[4-[2-[[1-(2-hydroxyethyl)pyrrolidin-3-yl]methoxy]-7-(3-hydroxy-1-naphthyl)-6,8-dihydro-5H-pyrido[3,4-d]pyrimidin-4-yl]piperazin-1-yl]prop-2-en-1-one]			C (“C”>50% POC)		< 6.00
C=CC(=O)N1CCN(c2nc(OCCCN3CCOCC3)nc3c2CCN(c2cccc4cccc(C)c24)C3)C[C@@H]1CC#N [Example 370, (S)-2-(1-acryloyl-4-(7-(8-methylnaphthalen-1-yl)-2-(3-morpholinopropoxy)-5,6,7,8-tetrahydropyrido[3,4-d]pyrimidin-4-yl)piperazin-2-yl)acetonitrile]			C (“C”>50% POC)		6.00 to 10.00
C=CC(=O)N1CCN(c2nc(OCCN3CCC[C@@H](F)C3)nc3c2CCN(c2cc(O)cc4ccccc24)C3)CC1 [Example 207, (R)-1-(4-(2-(2-(3-fluoropiperidin-1-yl)ethoxy)-7-(3-hydroxynaphthalen-1-yl)-5,6,7,8-tetrahydropyrido[3,4-d]pyrimidin-4-yl)piperazin-1-yl)prop-2-en-1-one]			C (“C”>50% POC)	< 6.00	
C=CC(=O)N1CCN(c2nc(OC(C)CN(C)C)nc3c2CCN(c2cc(O)cc4ccccc24)C3)CC1 (centres unmarked) [Example 11, 1-(4-(2-((1-(dimethylamino)propan-2-yl)oxy)-7-(3-hydroxynaphthalen-1-yl)-5,6,7,8-tetrahydropyrido[3,4-d]pyrimidin-4-yl)piperazin-1-yl)prop-2-en-1-one]			C (“C”>50% POC)		6.00 to 10.00
C=CC(=O)N1CCN(c2nc(O[C@H](C)[C@H]3CCCN3C)nc3c2CCN(c2cc(O)cc4ccccc24)C3)C[C@@H]1CC#N [Example 348, 2-[(2S)-4-[7-(3-hydroxy-1-naphthyl)-2-[(1R)-1-[(2R)-1-methylpyrrolidin-2-yl]ethoxy]-6,8-dihydro-5H-pyrido[3,4-d]pyrimidin-4-yl]-1-prop-2-enoyl-piperazin-2-yl]acetonitrile]			C (“C”>50% POC)		6.00 to 10.00
C=CC(=O)N1CCN(c2nc(OCCN3CC(F)(F)C3)nc3c2CCN(c2cc(O)cc4ccccc24)C3)CC1 [Example 138, 1-[4-[2-[2-(3,3-difluoroazetidin-1-yl)ethoxy]-7-(3-hydroxy-1-naphthyl)-6,8-dihydro-5H-pyrido[3,4-d]pyrimidin-4-yl]piperazin-1-yl]prop-2-en-1-one]			C (“C”>50% POC)		< 6.00
C=CC(=O)N1CCN(c2nc(OC[C@H]3CCCN3CC)nc3c2CCN(c2cccc4ccccc24)C3)C[C@@H]1CC#N [Example 334, 2-[(2S)-4-[2-[[(2R)-1-ethylpyrrolidin-2-yl]methoxy]-7-(1-naphthyl)-6,8-dihydro-5H-pyrido[3,4-d]pyrimidin-4-yl]-1-prop-2-enoyl-piperazin-2-yl]acetonitrile]			C (“C”>50% POC)		6.00 to 10.00
C=CC(=O)N1CCN(c2nc(OC[C@@H]3C[C@@H](OC)CN3C)nc3c2CCN(c2cc(OC)cc4ccccc24)C3)CC1 [Example 356, 1-[4-[2-[[(2S,4R)-4-methoxy-1-methyl-pyrrolidin-2-yl]methoxy]-7-(3-methoxy-1-naphthyl)-6,8-dihydro-5H-pyrido[3,4-d]pyrimidin-4-yl]piperazin-1-yl]prop-2-en-1-one]			C (“C”>50% POC)		< 6.00
C=CC(=O)N1CCN(c2nc(N3CCC(N(C)C)CC3)nc3c2CCN(c2cc(O)cc4ccccc24)C3)CC1 [Example 17, 1-(4-(2-(4-(dimethylamino)piperidin-1-yl)-7-(3-hydroxynaphthalen-1-yl)-5,6,7,8-tetrahydropyrido[3,4-d]pyrimidin-4-yl)piperazin-1-yl)prop-2-en-1-one]			B (“B”>25% POC−≤50% POC)		< 6.00
C=CC(=O)N1CCN(c2nc(OCCCN3CCN(C(C)=O)CC3)nc3c2CCN(c2cc(O)cc4ccccc24)C3)CC1 [Example 135, 1-[4-[2-[3-(4-acetylpiperazin-1-yl)propoxy]-7-(3-hydroxy-1-naphthyl)-6,8-dihydro-5H-pyrido[3,4-d]pyrimidin-4-yl]piperazin-1-yl]prop-2-en-1-one]			C (“C”>50% POC)		6.00 to 10.00
C=CC(=O)N1CCN(c2nc(OCCCN3CCCOCC3)nc3c2CCN(c2cc(O)cc4ccccc24)C3)CC1 [Example 101, 1-(4-(2-(3-(1,4-oxazepan-4-yl)propoxy)-7-(3-hydroxynaphthalen-1-yl)-5,6,7,8-tetrahydropyrido[3,4-d]pyrimidin-4-yl)piperazin-1-yl)prop-2-en-1-one]			C (“C”>50% POC)		6.00 to 10.00
C=CC(=O)N1CCN(c2nc(OC[C@@H]3CCCN3C)nc3c2CCN(c2c(C)ccc(F)c2C)C3)C[C@@H]1CC#N [Example 349, 2-((S)-1-acryloyl-4-(7-(3-fluoro-2,6-dimethylphenyl)-2-(((S)-1-methylpyrrolidin-2-yl)methoxy)-5,6,7,8-tetrahydropyrido[3,4-d]pyrimidin-4-yl)piperazin-2-yl)acetonitrile]			C (“C”>50% POC)		6.00 to 10.00
C=CC(=O)N1CCN(c2nc(OC[C@@H]3CCCN3C)nc3c2CCN(c2cccc4ccccc24)C3)C[C@H]1C [Example 201, 1-((R)-2-methyl-4-(2-(((S)-1-methylpyrrolidin-2-yl)methoxy)-7-(naphthalen-1-yl)-5,6,7,8-tetrahydropyrido[3,4-d]pyrimidin-4-yl)piperazin-1-yl)prop-2-en-1-one]			B (“B”>25% POC−≤50% POC)		< 6.00
C=CC(=O)N1CCN(c2nc(OC[C@H]3CCCCN3C)nc3c2CCN(c2cc(O)cc4ccccc24)C3)CC1 [Example 195, (R)-1-(4-(7-(3-hydroxynaphthalen-1-yl)-2-((1-methylpiperidin-2-yl)methoxy)-5,6,7,8-tetrahydropyrido[3,4-d]pyrimidin-4-yl)piperazin-1-yl)prop-2-en-1-one]			C (“C”>50% POC)		< 6.00
C=CC(=O)N1CCN(c2nc(OCC3CCN(C)C3)nc3c2CCN(c2cc(O)cc4ccccc24)C3)CC1 (stereo not drawn) [Example 89, 1-(4-(7-(3-hydroxynaphthalen-1-yl)-2-((l-methylpyrrolidin-3-yl)methoxy)-5,6,7,8-tetrahydropyrido[3,4-d]pyrimidin-4-yl)piperazin-1-yl)prop-2-en-1-one]			C (“C”>50% POC)		6.00 to 10.00
C=CC(=O)N1CCN(c2nc(OCC3CN(C)CCO3)nc3c2CCN(c2cc(O)cc4ccccc24)C3)CC1 (centres unmarked) [Example 193, 1-(4-(7-(3-hydroxynaphthalen-1-yl)-2-((4-methylmorpholin-2-yl)methoxy)-5,6,7,8-tetrahydropyrido[3,4-d]pyrimidin-4-yl)piperazin-1-yl)prop-2-en-1-one]			C (“C”>50% POC)		6.00 to 10.00
C=CC(=O)N1CCN(c2nc(OC[C@H]3CCCN3C)nc3c2CCN(c2cccc4ccccc24)C3)C[C@@H]1CC#N [Example 267, 2-((S)-1-acryloyl-4-(2-(((R)-1-methylpyrrolidin-2-yl)methoxy)-7-(naphthalen-1-yl)-5,6,7,8-tetrahydropyrido[3,4-d]pyrimidin-4-yl)piperazin-2-yl)acetonitrile]			C (“C”>50% POC)	6.00 to 10.00	
